# US11306360B2, “Assessment of cellular signaling pathway activity using linear combination(s) of target gene expressions” (KONINKLIJKE PHILIPS N.V., priority 2012, dated 2022)
# Experiments:
# ER pathway [1] = experiment: Predicted ER pathway activity in wild type MCF7 cell line (GSE21618); type: cell-based
# Experimental: (§1) The ER (pseudo-)linear model was trained using continuous expression data of GSE8597, the “most discriminative probesets” (underlined probesets in Table 2) and “log odds” weights (see training results in FIG. 10). Different stimulation regimes were applied, denoted in the different groups of samples, and the expression of mRNA was measured by microarray at 0, 1, 2, 3, 6, 12, 24, 48 hours, denoted by the consecutive samples in the groups.
# (§2) The (pseudo-)linear model of the ER pathway, constructed using a node for the transcription factor presence and a layer of probesets (Table 2) associated with the target genes of the ER pathway, analogous to FIG. 2 as described herein, and trained as described herein, was used to calculate the ER pathway activity score.
# (§3) With respect to FIG. 20, Tamoxifen is a drug currently used for the treatment of ER+ (estrogen receptor positive) breast cancer. It acts as a partial antagonist of the estrogen receptor inhibiting the uncontrolled cell proliferation which is thought to be induced by ER signaling. […] Many studies have been conducted to investigate this so-called Tamoxifen resistance. The publicly available GSE21618 data set is the result of one of such study and contains microarray data of Tamoxifen resistant and wildtype MCF7 cell lines under different treatment regimes. […]
# ER pathway [2] = experiment: Predicted ER pathway activity in Tamoxifen resistant MCF7 cell line (GSE21618); type: cell-based; settings: Tamoxifen resistant cell line stimulated with E2 and treated with Tamoxifen (TamR.E2_Tam); 1, 2, 3, 6, 12, 24 and 48 h
# Experimental: as §1, §2, §3
# ER pathway [3] = experiment: ER pathway activity score in MCF7 cells stimulated with or deprived of E2 (GSE11352); type: cell-based; settings: MCF7, longer exposure times (12, 24, 48 hours) to ER stimulating agent
# From the text: FIG. 12 ER pathway prediction in stimulation response data of MCF7 cells treated with ER stimulating agent (E2) or control for several treatment intervals (GSE11352, continuous data). The model is trained using continuous expression data of GSE8597, the “most discriminative probesets” (underlined probesets in Table 2) and “log odds” weights (see training results in FIG. 10).
# In another example, a publically available data set of MCF7 cell lines stimulated with or deprived of ER stimulating agent (E2) with expression levels measured at 12 hours, 24 hours and 48 hours after starting stimulation or deprivation (GSE11352) was used to calculate the ER activity scores using the trained ER (pseudo-)linear model as described herein. […] With the exception of the starvation of 48 hours, the predicted ER activity scores nicely correlates with the knowledge that prolonged stimulation result in higher ER activity and vice versa. Inversely, this example implies that the ER activity score can be used to monitor efficacy or inefficacy of stimulation or inhibition of ER activity treatments.
# ER pathway [4] = experiment: ER activity score validation in MCF7 breast cancer cell line (GSE9253); type: cell-based; settings: MCF7 sample stimulated with E2, 3 hours
# From the text: FIG. 17 ER validation results of a stimulation experiment with MCF7 cells (GSE9253, continuous data). The (pseudo-)linear model was trained using continuous expression data of GSE8597, the “most discriminative probesets” (underlined probesets in Table 2) and “log odds” weights (see training results in FIG. 10). It is clear from the MCF7 cells stimulated with E2, ER stimulating agent, that the defined threshold was set too high. The reason for this discrepancy could be a different stimulation regime (i.e. higher E2 concentration, but shorter stimulation time, etc.). Nevertheless, the difference of the calculated ER activity scores of the stimulated and non-stimulated cells is evident.
# In FIG. 17 the validation results of the trained ER (pseudo-)linear model is shown for two microarrays measured using a MCF7 breast cancer cell line sample, one stimulated with estradiol (E2) the other one with a negative control (EtOH), originating from the GSE9253 data set. The difference in ER activity score is evident from FIG. 17. […] This is the result of the threshold defining either an active or passive state was set too high for this particular experiment. […]
# AR pathway = settings: LNCaP stimulated with DHT for 4 hours, compared with 16 hours
# From the text: FIG. 13 AR training results using fuzzy transformed expression data of GSE7868, “all probesets” as mentioned in Table 4 and “black and white” weights. The 1st and 2nd group of samples (from the left) has been used as negative and positive training samples, respectively.
# The expression data of these stimulation experiments are publically available in the GSE7868 dataset that has been fuzzy transformed as described herein. […] The 1st and 2nd group of samples from the left has been used as negative and positive training samples, respectively.
compound,measurement,setting,value
CC/C(=C(\c1ccccc1)c1ccc(OCCN(C)C)cc1)c1ccccc1 [Tamoxifen],ER pathway activity score in time,ER pathway [1]; wild type MCF7 stimulated with E2 and treated with Tamoxifen (wt2.E2_Tam),decreasing ER pathway activity score in time
same,predicted ER pathway activity,ER pathway [2],ineffective
"C[C@]12CC[C@@H]3c4ccc(O)cc4CC[C@H]3[C@@H]1CC[C@@H]2O [E2, 17beta-estradiol]",ER pathway activity score,ER pathway [3],increase for longer exposure times
same,ER activity predictions,ER pathway [1]; wild type MCF7 treated with 17beta-estradiol (wt1.E2),increasing ER positive activity predictions
same,ER activity score,ER pathway [4],slightly negative ER activity score
"C[C@]12CCC(=O)C[C@@H]1CC[C@@H]1[C@@H]2CC[C@]2(C)[C@@H](O)CC[C@@H]12 [DHT, Dihydrotestosterone]",AR activity,AR pathway,"demonstrates AR activity, albeit lower activity levels than the cells stimulated for 16 hours"
